Results as given in US9549911B2, “Ginger metabolites and uses thereof” (North Carolina A&T State University, priority 2012, dated 2017).
Read-outs that look alike come from different tables or passages of the source.

How the values were obtained:
[1] = tested on: human colon cancer cells HCT-116; test: MTT growth inhibition of human cancer and normal cells (Part 2); assay type: cell-based; conditions: HCT-116, 48 h, 0 to 80 μM
Procedure: (§1) Growth inhibition of human cancer and normal cells. Cell growth inhibition was determined by a MTT colorimetric assay. Human colon cancer cells HCT-116, human lung cancer cells H-1299, human colon fibroblast cells CCD-18Co, and human lung fibroblast cells IMR-90 were plated in 96-well microtiter plates with 3000 cells/well and allowed to attach for 24 h at 37° C. […] After the cells were cultured for 48 h, the medium was aspirated and cells were treated with 200 μL fresh medium containing 2.41 mmol/L MTT. […] The reading reflected the number of viable cells and was expressed as a percentage of viable cells in the control. Both HCT-116 and H-1299 cells were cultured in McCoy's 5A medium. CCD-18Co and IMR-90 cells were cultured in Eagle's modified essential medium (EMEM). All of the above media were supplemented with 10% fetal bovine serum, 1% penicillin/streptomycin, and 1% glutamine, and the cells were kept in a 37° C. incubator with 95% humidity and 5% CO2.

[2] = tested on: human lung cancer cells H-1299; test: as above; assay type: cell-based; conditions: H-1299, 48 h, 0 to 80 μM
Procedure: as §1

[3] = tested on: A549 lung cancer cells; conditions: for tumor weight lower (minus % compared to DMSO-treated control): after 7 weeks; for BrdU+ cells/field in tumor tissue: control about 6.3; for TUNEL+ cells/field in tumor tissue: control about 15.5; for tumor size versus control group: 6S 30 mg/kg, M2 30 mg/kg, M14 10 mg/kg, oral gavage 5×/week
Procedure: Nu/J nude mice were obtained from Jackson Laboratories (Bar Harbor, Me.). Animals were randomized into 4 groups. A549 cells (5×10^6 cells) were implanted in both flanks of 8-weeks old Nu/J mice. One week after implantation, animals were given 100 μl of the following treatments through oral gavage 5 times/week: DMSO 0.25 ml/kg (control; n=4); 6S 10 mg/kg (n=4); 6S 30 mg/kg (n=4) or M2 30 mg/kg (n=5). Compounds were diluted in a solution of 5% DMSO in corn oil. Animal body weight and tumor volume were recorded for the duration of the experiment. Tumor volume was calculated by measuring the length and width of the tumors using a digital caliper and using the formula (Length×Width^2)/2. One hour before sacrifice, mice were given one last treatment dose as well as one intra-peritoneal injection of BrdU (7.5 mg/kg in 100 μl PBS). After 7 weeks, tumor tissues were harvested and weighed. A portion of the tumors was snap frozen in liquid nitrogen and another portion was placed in a histology cassette and immersed in formalin solution.
[…] tissues were sent to Precision Histology Lab (Oklahoma City, Okla.) for embedding in paraffin blocks. Then paraffin blocks were processed into 3-4 μm sections that were then put on microscope slides. Sections were then deparaffinized by using a succession of 3 baths of xylene (5 minutes each), 2 baths of absolute ethanol (5 minutes each), 95% ethanol for 3 minutes, 70% ethanol for 3 minutes, and rinsed in PBS. Immunostaining with TUNEL (terminal deoxynucleotidyl transferase dUTP nick end labeling) and BrdU staining kits was performed following manufacturer's recommendation. For staining quantification, sequential high-power field pictures of tumors were taken (10 pictures per tumor) using an A1 Zeiss microscope (Oberkochen, Germany). Images were processed using the Image J software, which was used to count positive, brown-colored cells in each field. Average number per tumor was calculated by averaging the number obtained for each field, and the average number of positive cells per group was obtained by averaging the values of each tumor belonging to the experimental group.
8 week-old nude mice (Jackson Laboratory, Maine) were randomized into 5 groups based on treatment (DMSO: n=4; 6S 10 mg/kg: n=4 (“6S 10”); 6S 30 mg/kg: n=4 (“6S 30”); M2 30 mg/kg: n=5 (“M2 30”); M14 10 mg/kg: n=4 (“M14 10”)). Animals were implanted with 5×10^6 A549 lung cancer cells (adenocarcinomic human alveolar basal epithelial cells) on each flank. The mice had access to food and water ad libitum. One week post implantation, the animals started receiving their respecting treatments through oral gavage (100 μl in corn oil and 5% DMSO), 5×/week. After 7 weeks of treatment, the tumor tissues were harvested.

[4] = tested on: A549 cancer cells; test: MTT cell viability (Part 4); assay type: cell-based, human; conditions: A549, 24 hours, read-out: IC50 (toxicity, MTT)
[5] = tested on: A549 cells; test: Cell Death Detection ELISA apoptosis (Part 4); assay type: cell-based, human; conditions: A549, 20 μM, 24 hours; for enrichment factor (small nucleosomes, ELISA): with pft
Procedure: The Cell Death Detection ELISA (Enzyme-linked immunoabsorbant assay) Plus kit from Roche (Mannheim, Germany) was used. […] After 24 hours, the microplate was centrifuged for 10 minutes at 1200 rpm, and the supernatant was removed. 200 μl of the lysis buffer was added in each well and incubated for 30 minutes at room temperature. The plate was then centrifuged for 10 minutes at 1200 rpm and 20 μl of the supernatant was transferred to streptavidin-coated micro-wells. ELISA assay was performed according to manufacturer's instruction. Absorbance in each well was measured at 405 nm in absorbance units (AU), and the enrichment factor (EF) in small nucleosomes was calculated with the formula EF=AU treated/AU DMSO.

[6] = tested on: HCT-116 cells; test: Western blot analysis of apoptosis markers and p53 (Part 5); assay type: cell-based, human; conditions: for p53 expression (Western blot): HCT-116 (p53 wild-type), 24 hours, M2, 6S 10, 20 or 40 μM, 8S, M2′, 10S, M2″ 20 μM
Procedure: (§2) Cell lysates were prepared in ice-cold RIPA lysis buffer [25 mM Tris-HCl (pH 7.6), 150 mM NaCl, 1% NP-40, 1% sodium deoxycholate, 0.1% SDS, Thermo Fisher Scientific] supplemented with a protease inhibitor cocktail (AEBSF, aprotinin, bestatin, E-64, leupeptin and pepstatin A in DMSO with EDTA, Thermo Fisher Scientific). Protein content was measured by a Pierce BCA Assay Kit (Thermo Fisher Scientific). Protein contents of cell lysates (30 μg protein/lane) were resolved by SDS-PAGE. Proteins were then electro-transferred onto PVDF membranes and blots were blocked for one hour at room temperature in 1×TBS with 1% Casein (Bio-Rad Laboratories, Berkeley, Calif.). Blots were then incubated overnight at 4° C. with the desired primary antibody diluted in TBS with 0.5% Tween-20. Blots were then washed with TBS-Tween 20 and probed for 1 hour with the appropriate secondary antibody (1:1000). Protein bands were visualized with chemiluminescence using West Femto maximum detection substrate (Thermo Fisher Scientific). To confirm equal protein loading in each lane, immunoblots were stripped and re-probed for β-actin. Protein fold-induction was calculated by normalizing the intensity of the band of interest to β-actin first, and then to DMSO control lanes.

[7] = tested on: HT-29 cells; test: as above; assay type: cell-based, human; conditions: for p53 expression (Western blot): HT-29 (p53 mutant), 24 hours, M2, 6S 10, 20 or 40 μM, 8S, M2′, 10S, M2″ 20 μM
Procedure: as §2

[8] = M2 30 mg/kg vs 6S 30 mg/kg, 7 weeks

SMILES: CCCCCC(CC(=O)CCc1ccc(O)c(OC)c1)SC[C@H](N)C(=O)O (stereo partly shown) [M2, 5-cysteinyl-[6]-shogaol]
- IC50 [1]: 24.4 µM
- IC50 [2]: 25.8 µM
- tumor weight lower (minus % compared to DMSO-treated control) ([3]; 30 mg/kg oral gavage 5×/week): 53.7%
- BrdU+ cells/field in tumor tissue ([3]; 30 mg/kg): 5.7 BrdU+ cells/field
- TUNEL+ cells/field in tumor tissue ([3]; 30 mg/kg): 28.6 TUNEL+ cells/field
- tumor size versus control group ([3]; 7 weeks): Reduction in tumor size
- decrease of tumor burden relative to the equivalent 6S group [3, 8]: 21.8%
- lower tumor burden than the equivalent 6S group compared to DMSO [3, 8]: 12.9%
- changes in body weight between groups ([3]; oral gavage up to 7 weeks): did not induce any significant changes in body weight
- IC50 [4]: 30.4 µM
- enrichment factor (small nucleosomes, ELISA) [5]: 2
- p53 expression (Western blot) [6]: dose-dependent up-regulation of p53
- Bcl-2 levels (Western blot, vs DMSO) ([6]; HCT-116, 40 μM): undetectable
- PUMA induction (Western blot, vs DMSO) ([6]; HCT-116, 40 μM): ~17 fold
- XIAP expression (Western blot, vs DMSO) ([6]; HCT-116, 40 μM): undetectable
- cleaved caspase 9 (Western blot, vs DMSO) ([6]; HCT-116, 40 μM): ~4.6 fold
- cytochrome c release (Western blot, vs DMSO) ([6]; HCT-116, 40 μM): ~2.2 fold
- p53 expression (Western blot) [7]: dose-dependent up-regulation of p53
- Bcl-2 levels (Western blot, vs DMSO) ([7]; HT-29, 40 μM): ~0.1 fold
- PUMA induction (Western blot, vs DMSO) ([7]; HT-29, 40 μM): ~17 fold
- XIAP expression (Western blot, vs DMSO) ([7]; HT-29, 40 μM): ~0.3 fold
- cleaved caspase 9 (Western blot, vs DMSO) ([7]; HT-29, 40 μM): ~4.6 fold
- cytochrome c release (Western blot, vs DMSO) ([7]; HT-29, 40 μM): ~2.2 fold

SMILES: CCCCC/C=C/C(=O)CCc1ccc(O)c(OC)c1 [[6]-shogaol, reference compound]
- IC50 [1]: 18.2 µM
- IC50 [2]: 17.9 µM
- tumor weight lower (minus % compared to DMSO-treated control) ([3]; 10 mg/kg oral gavage 5×/week, not significant): 25.6%
- BrdU+ cells/field in tumor tissue ([3]; 10 mg/kg): 4.7 BrdU+ cells/field
- TUNEL+ cells/field in tumor tissue ([3]; 10 mg/kg): 27.8 TUNEL+ cells/field
- tumor weight lower (minus % compared to DMSO-treated control) ([3]; 30 mg/kg oral gavage 5×/week): 40.8%
- BrdU+ cells/field in tumor tissue ([3]; 30 mg/kg): 3.4 BrdU+ cells/field
- TUNEL+ cells/field in tumor tissue ([3]; 30 mg/kg): 32.6 TUNEL+ cells/field
- tumor size versus control group ([3]; 7 weeks): Reduction in tumor size
- IC50 ([4]; listed as 6S): 25.2 µM
- enrichment factor (small nucleosomes, ELISA) [5]: about 1
- enrichment factor (cytoplasmic histone-associated DNA fragments, ELISA) ([5]; without pft): 2.2
- p53 expression (Western blot) [6]: dose-dependent up-regulation of p53
- p53 expression (Western blot) [7]: dose-dependent up-regulation of p53
